These results are taken from PubChem BioAssay AID179 (DTP/NCI, 2004).

The structures appear in SMILES notation. The source made the active and inactive calls.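 Rule for the calls: active = compounds giving half or more protection of infected cells from virus-caused growth loss, again on retest; inactive = the rest.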 Where a SMILES comes first, the peptide text is derived from it. Bridges are numbered along the chain shown (N, C = ends). Some results are limits rather than exact numbers.

This assay relates to CEM cells HIV-1 protection, formazan growth assay. Nature of the assay: NCI AIDS Antiviral Assay. As to conditions: for IC50: measured here: growth of uninfected CEM cells. The method in brief: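 Soluble formazan readout of cell growth; CEM cells ± HIV-1; 5 drug concs. ≥50% protection → retest; ≥50% again = moderately active; reproducible 100% = confirmed active.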

In general, EC50 refers to the concentration giving half of the maximal effect. Broadly, the IC50 is the concentration needed to halve the response being measured. A high value points to weaker potency in that assay. With `CCOC(=O)NNP(=O)(NNC(=O)OCC)c1ccccc1`, the EC50 was above 110 µM and the IC50 is above 110 µM. As to `COc1ccc(N(C)C(=O)N(C)c2ccc([N+](=O)[O-])cc2)cc1`, the EC50 was above 200 µM and the IC50 was determined as 9.33 µM.

Turning to `COC1/C=C/OC2(C)Oc3c(C)c(O)c4c(O)c(cc(OCC(=O)N5CCOCC5C)c4c3C2=O)NC(=O)/C(C)=C/C=C/C(C)C(O)C(C)C(O)C(C)C(OC(C)=O)C1C` (configuration not stated), the EC50 was above 200 µM and the IC50 stood at 36.3 µM. Take `CSCCC(NC(=O)OC(C)(C)C)C(=O)NCCNc1ccc(NCCNC(=O)C(CCSC)NC(=O)OC(C)(C)C)c2c1C(=O)c1ccccc1C2=O` (configuration not stated): the EC50 was above 100 µM and the IC50 was above 100 µM. Regarding `O=[N+]([O-])c1cc(-c2ccc([As](=O)(O)O)cc2)ccc1[As](=O)(O)O`, the EC50 is above 200 µM and the half-maximal inhibitory concentration (IC50) is above 200 µM. For `CC(=O)C1Cn2c(=O)c3cc4ccccc4cc3c(=O)n2C=C1C` (configuration not stated), the EC50 is above 112 µM and the IC50 is above 112 µM. Regarding `[N-]=[N+]=CC(=O)CCC(=O)N(c1ccccc1)c1ccccc1`, the EC50 was 135 µM and the IC50 turned out to be 195 µM. For `CC(=O)Oc1ccc2c(oc(=O)c3nc(C)oc32)c1C` the same measures were above 200 µM and 145 µM. The corresponding values for `CC(C)(O)/C=C/C(=O)[C@](C)(O)[C@H]1[C@H](O)C[C@@]2(C)[C@@H]3CC=C4[C@@H](C=C(O)C(=O)C4(C)C)[C@]3(C)C(=O)C[C@]12C` are above 0.2 µM and 0.0324 µM. For `O=C1NC(=O)C(=CN2C(=O)/C(=C/c3ccc(O)cc3)SC2=S)C(=O)N1` the same measures were above 200 µM and 41.7 µM. Take `Cc1ccc(/C=N/Nc2nncc3ccccc23)s1`: the EC50 was above 200 µM and the concentration for half-maximal inhibition (IC50) is above 200 µM. Turning to `O=Nc1c(O)c(S(=O)(=O)O)cc2cc(S(=O)(=O)O)ccc12`, the EC50 was above 200 µM and the half-maximal inhibitory concentration (IC50) is 33.1 µM. The corresponding values for `CC(=O)Oc1cc(S(=O)(=O)Nc2n[nH]c(Nc3ccc(C)cc3)n2)c(S)cc1Cl` are 155 µM and 263 µM. For `O=c1[nH]c(O)c(/C=N/C(=S)NCc2ccccc2)c(=O)[nH]1` the same measures were above 200 µM and 195 µM.

Regarding `[N-]=[N+]=C1C(=O)C2CC3CC1CC2C3` (configuration not stated), the EC50 was above 204 µM and the IC50 was above 204 µM. For the compound `COCc1ccc2c(c1)C(O)NC(=O)O2` (configuration not stated), the EC50 was above 200 µM and the IC50 stood at 58.9 µM.

Take `O=C1/C(=C2\Sc3c(ccc(Cl)c3Cl)C2=O)Sc2c1ccc(Cl)c2Cl`: the EC50 is above 200 µM and the IC50 was above 200 µM. `CCCCCCCCCC(=O)CC(=O)c1ccc(O)cc1O`: the EC50 is above 117 µM and the IC50 was 69.2 µM. For `OC1(c2ccccc2)OC(C#Cc2ccccc2)(c2ccccc2)c2ccccc21` (configuration not stated), the result was inactive. In the case of `Cc1cc2c(Br)cc(Br)c(O)c2nc1C(=O)c1ccccc1`, the EC50 was above 4.79 µM and the IC50 is above 4.79 µM. As for `C/C=C/C=C\C=C/C(O)C(C)C(CCC(C)C1OC(=O)C=CC1C)OP(=O)(O)O` (configuration not stated), the EC50 was above 2 µM and the IC50 is 0.129 µM. As to `OCCCCCCCCCCCOc1ccc(C2OCC3(CC=CCC3)CO2)cc1` (configuration not stated), the EC50 is above 200 µM and the IC50 worked out at 36.3 µM. For `CC(=O)O/C=C\OC1CCCC1` the same measures were above 200 µM and above 200 µM.

In the case of `Cc1c(CO)[n+](=O)c2ccccc2n1[O-]`, the EC50 is above 200 µM and the IC50 is above 200 µM. As to `CCC1CC2CN3CCc4c([nH]c5ccc(OC)cc45)C(COC(=O)c4ccc(OC)c(OC)c4)(C2)C13` (configuration not stated), the outcome was inactive.

On to `Nc1nc2cc(Cl)ccc2n1N`, for which the EC50 is above 200 µM and the IC50 was above 200 µM. Consider `C[N+](C)(C)CC(=O)N/N=C(/Cc1nc2ccc(Cl)cc2[nH]c1=O)C1=NS(=O)(=O)c2cc(S(N)(=O)=O)c(Cl)cc2N1`, for which the EC50 was above 269 µM and the IC50 is above 269 µM.

For `c1ccc([P+](Cc2ccc3c(c2)OCO3)(c2ccccc2)c2ccccc2)cc1`, the EC50 was above 200 µM and the IC50 turned out to be 3.39 µM. For `Cc1nc2ccccc2c2c(N)cccc12`, the EC50 was above 200 µM and the IC50 is above 200 µM. Consider `NC1=NN(c2ccccc2)C(=O)/C1=C\n1c(=S)[nH]c2ccccc21`, for which the EC50 was above 200 µM and the IC50 was above 200 µM.

For the compound `COC(=O)CCC12CCC(O1)c1ccccc12` (configuration not stated), the EC50 was above 200 µM and the IC50 is above 200 µM. With `COc1cc(/C=C2\C(=O)N(C(=O)Cc3ccccc3)N=C2C)ccc1O`, the EC50 is above 53.7 µM and the IC50 is above 53.7 µM. In the case of `COc1ccc2c(c1)C(C(=O)O)CC(=O)N2C` (configuration not stated), the EC50 is above 200 µM and the IC50 was above 200 µM. For `CC(C)[C@@H]1CC[C@@H](C)C[C@H]1OC(=O)/C=C1/C2C=CC(O2)C1C(=O)O[C@@H]1C[C@H](C)CC[C@H]1C(C)C` (some centres not stated), the EC50 is above 200 µM and the concentration for half-maximal inhibition (IC50) was above 200 µM. Consider `CCOC(=O)C(=O)CC1=NC2CCCCC2N(C)C1=O` (configuration not stated), for which the EC50 is above 200 µM and the IC50 was above 200 µM. Consider `Cc1cc(O)cc2c1O[C@@]1(C)CCC3[C@@]4(C)CC[C@H](O)C(C)(C)C4CC[C@@]3(C)[C@H]1C2` (some centres not stated), for which the outcome was inactive. As to `CCC(C)(O)c1cn(-c2ccc(S(=O)(=O)O)cc2)nn1` (configuration not stated), the EC50 is above 417 µM and the IC50 is above 417 µM. Regarding `CCc1cccc(C)c1NS(=O)(=O)c1ccccc1`, the result was inactive. For `CCC(C)C1NC(=O)C(CC(C)C)NC(=O)C(C(C)C)NC(=O)C2CSSCC(NC1=O)C(=O)N2` (configuration not stated) (cyclo(CCVLI); disulfide 1-2; configuration not given here), the EC50 was above 2 µM and the IC50 turned out to be 0.339 µM. As for `S=CN1CCN(C=S)CC1`, the result was inactive.

`Cc1cnc2sn(-c3ccc([N+](=O)[O-])cc3)c(=O)c2c1`: the EC50 is 7.59 µM and the IC50 is 107 µM.

Turning to `N#CC(C#N)=CC=C1c2ccccc2Sc2ccccc21`, the EC50 is above 18.2 µM and the IC50 was above 18.2 µM. For the compound `CCCCCNC(=O)Sc1ccccc1C(=O)N[C@H](C)C(N)=O`, the EC50 was determined as 1 µM and the IC50 amounted to 123 µM. The corresponding values for `COc1cc2c(cc1OC)C(C(=O)c1cccc(OC)c1OC)C(=O)N(C)CC2` (configuration not stated) are above 126 µM and above 126 µM. For `COc1cc(/C=C/C(C)=O)ccc1OP(=O)(O)O` the same measures were above 200 µM and above 200 µM. For `Cc1ncc(-c2nnnn2-c2ccccc2)c(C(=O)O)n1` the same measures were above 200 µM and above 200 µM. With `COc1ccc(-c2c(O)c3c(OC)cc(OC)cc3oc2=O)cc1`, the EC50 was above 200 µM and the IC50 is 158 µM. The corresponding values for `COC(=O)C1=C(C(=O)OC)C23C=CC=CC24C(C(=O)OC)=C(C(=O)OC)C4C1C3` (configuration not stated) are above 447 µM and 155 µM.

Take `COC(=O)C1C(=O)C(C(=O)OC)C2CCC1N2C` (configuration not stated): the EC50 is above 200 µM and the IC50 stood at 42.7 µM. Take `CCCCCCCC(=O)OCC1OC(OC)C(NC(=O)N(CCCl)N=O)C(O)C1O` (configuration not stated): the EC50 is above 79.4 µM and the IC50 turned out to be 8.51 µM. For the compound `CCC(=O)OC1CC2=CC(=O)CCC2(C)C2CCC3(C)C(OC(=O)CC)CCC3C12` (configuration not stated), the EC50 is above 200 µM and the IC50 is above 200 µM.
